How the values were obtained:
[1] = Selectivity index determined for CC50 (test I) to EC50 x 10e3; assay type: functional
[2] = Selectivity index determined for CC50 (test II) to EC50 x 10e3; assay type: functional

Structure (SMILES)	SI [1]	SI [2]
NCCCC[C@@H]1NC(=O)[C@@H](CCCCN)NC(=O)[C@H](CCCNC(N)=O)NC(=O)[C@@H](Cc2ccc(O)cc2)NC(=O)[C@H](NC(=O)[C@@H](NC(=O)[C@H](CCCN=C(N)N)NC(=O)[C@@H](N)CCCN=C(N)N)c2ccc3ccccc3c2)CSSC[C@H](C(=O)N[C@@H](CCCN=C(N)N)C(=O)O)NC(=O)[C@H](CCCNC(N)=O)NC(=O)[C@H](CCCN=C(N)N)NC(=O)[C@H](Cc2ccc(O)cc2)NC(=O)[C@H]2CCCN2C1=O	> 29	180
NCCCC[C@@H]1NC(=O)[C@@H](CCCCN)NC(=O)[C@H](CCCNC(N)=O)NC(=O)[C@@H](Cc2ccc(O)cc2)NC(=O)[C@H](NC(=O)[C@@H](NC(=O)[C@H](CCCN=C(N)N)NC(=O)[C@@H](N)CCCNC(N)=O)c2ccc3ccccc3c2)CSSC[C@H](C(=O)N[C@@H](CCCN=C(N)N)C(N)=O)NC(=O)[C@H](CCCNC(N)=O)NC(=O)[C@H](CCCN=C(N)N)NC(=O)[C@H](Cc2ccc(O)cc2)NC(=O)[C@H]2CCCN2C1=O	> 15	53
NCCCC[C@H]1NC(=O)[C@H](CCCN=C(N)N)NC(=O)[C@@H](Cc2ccc(O)cc2)NC(=O)[C@H](NC(=O)[C@@H](NC(=O)[C@H](CCCN=C(N)N)NC(=O)[C@@H](N)CCCNC(N)=O)c2ccc3ccccc3c2)CSSC[C@H](C(=O)N[C@@H](CCCN=C(N)N)C(N)=O)NC(=O)[C@H](CCCNC(N)=O)NC(=O)[C@H](CCCN=C(N)N)NC(=O)[C@H](Cc2ccc(O)cc2)NC(=O)[C@H]2CCCN2C(=O)[C@H](CCCNC(N)=O)NC1=O	> 83	420
NCCCC[C@H]1NC(=O)[C@H](CCCN=C(N)N)NC(=O)[C@@H](Cc2ccc(O)cc2)NC(=O)[C@H](NC(=O)[C@@H](NC(=O)[C@H](CCCN=C(N)N)NC(=O)[C@@H](N)CCCNC(N)=O)c2ccc3ccccc3c2)CSSC[C@H](C(=O)N[C@@H](CCCN=C(N)N)C(=O)O)NC(=O)[C@H](CCCNC(N)=O)NC(=O)[C@H](CCCN=C(N)N)NC(=O)[C@H](Cc2ccc(O)cc2)NC(=O)[C@H]2CCCN2C(=O)[C@H](CCCNC(N)=O)NC1=O	> 2.8	> 22
NCCCC[C@H]1NC(=O)[C@H](CCCN=C(N)N)NC(=O)[C@@H](Cc2ccc(O)cc2)NC(=O)[C@H](NC(=O)[C@@H](NC(=O)[C@H](CCCN=C(N)N)NC(=O)[C@@H](N)CCCN=C(N)N)c2ccc3ccccc3c2)CSSC[C@H](C(=O)N[C@@H](CCCN=C(N)N)C(N)=O)NC(=O)[C@H](CCCNC(N)=O)NC(=O)[C@H](CCCNC(N)=O)NC(=O)[C@H](Cc2ccc(O)cc2)NC(=O)[C@H]2CCCN2C(=O)[C@H](CCCNC(N)=O)NC1=O	> 37	250
NCCCC[C@@H]1NC(=O)[C@@H](CCCCN)NC(=O)[C@H](CCCNC(N)=O)NC(=O)[C@@H](Cc2ccc(O)cc2)NC(=O)[C@H](NC(=O)[C@@H](NC(=O)[C@H](CCCN=C(N)N)NC(=O)[C@@H](N)CCCN=C(N)N)c2ccc3ccccc3c2)CSSC[C@H](C(=O)N[C@@H](CCCN=C(N)N)C(N)=O)NC(=O)[C@H](CCCNC(N)=O)NC(=O)[C@H](CCCN=C(N)N)NC(=O)[C@H](Cc2ccc(O)cc2)NC(=O)[C@H]2CCCN2C1=O	> 170	680
NCCCC[C@@H]1NC(=O)[C@@H](CCCCN)NC(=O)[C@H](CCCNC(N)=O)NC(=O)[C@@H](Cc2ccc(O)cc2)NC(=O)[C@H](NC(=O)[C@@H](NC(=O)[C@H](CCCN=C(N)N)NC(=O)[C@@H](N)CCCNC(N)=O)c2ccc3ccccc3c2)CSSC[C@H](C(=O)N[C@@H](CCCN=C(N)N)C(=O)O)NC(=O)[C@H](CCCNC(N)=O)NC(=O)[C@H](CCCN=C(N)N)NC(=O)[C@H](Cc2ccc(O)cc2)NC(=O)[C@H]2CCCN2C1=O	> 2.7	22
NCCCC[C@@H]1NC(=O)[C@@H](CCCCN)NC(=O)[C@H](CCCNC(N)=O)NC(=O)[C@@H](Cc2ccc(O)cc2)NC(=O)[C@H](NC(=O)[C@@H](NC(=O)[C@H](CCCN=C(N)N)NC(=O)[C@@H](N)CCCN=C(N)N)c2ccc3ccccc3c2)CSSC[C@H](C(=O)N[C@@H](CCCN=C(N)N)C(N)=O)NC(=O)[C@H](CCCNC(N)=O)NC(=O)[C@H](CCCNC(N)=O)NC(=O)[C@H](Cc2ccc(O)cc2)NC(=O)[C@H]2CCCN2C1=O	> 15	> 59
NCCCC[C@H]1NC(=O)[C@H](CCCN=C(N)N)NC(=O)[C@@H](Cc2ccc(O)cc2)NC(=O)[C@H](NC(=O)[C@@H](NC(=O)[C@H](CCCN=C(N)N)NC(=O)[C@@H](N)CCCN=C(N)N)c2ccc3ccccc3c2)CSSC[C@H](C(=O)N[C@@H](CCCN=C(N)N)C(N)=O)NC(=O)[C@H](CCCNC(N)=O)NC(=O)[C@H](CCCN=C(N)N)NC(=O)[C@H](Cc2ccc(O)cc2)NC(=O)[C@H]2CCCN2C(=O)[C@H](CCCNC(N)=O)NC1=O	> 22	21
NCCCC[C@H]1NC(=O)[C@H](CCCNC(N)=O)NC(=O)[C@@H](Cc2ccc(O)cc2)NC(=O)[C@H](NC(=O)[C@@H](NC(=O)[C@H](CCCN=C(N)N)NC(=O)[C@@H](N)CCCN=C(N)N)c2ccc3ccccc3c2)CSSC[C@H](C(=O)N[C@@H](CCCN=C(N)N)C(N)=O)NC(=O)[C@H](CCCNC(N)=O)NC(=O)[C@H](CCCN=C(N)N)NC(=O)[C@H](Cc2ccc(O)cc2)NC(=O)[C@H]2CCCN2C(=O)[C@H](CCCNC(N)=O)NC1=O	> 250	> 2000
NCCCC[C@@H]1NC(=O)[C@@H](CCCCN)NC(=O)[C@H](CCCNC(N)=O)NC(=O)[C@@H](Cc2ccc(O)cc2)NC(=O)[C@H](NC(=O)[C@@H](NC(=O)[C@H](CCCN=C(N)N)NC(=O)[C@@H](N)CCCN=C(N)N)c2ccc3ccccc3c2)CSSC[C@H](C(=O)N[C@@H](CCCN=C(N)N)C(=O)O)NC(=O)[C@H](CCCNC(N)=O)NC(=O)[C@H](CCCNC(N)=O)NC(=O)[C@H](Cc2ccc(O)cc2)NC(=O)[C@H]2CCCN2C1=O	> 11	> 90
NCCCC[C@H]1NC(=O)[C@H](CCCN=C(N)N)NC(=O)[C@@H](Cc2ccc(O)cc2)NC(=O)[C@H](NC(=O)[C@@H](NC(=O)[C@H](CCCN=C(N)N)NC(=O)[C@@H](N)CCCN=C(N)N)c2ccc3ccccc3c2)CSSC[C@H](C(=O)N[C@@H](CCCN=C(N)N)C(=O)O)NC(=O)[C@H](CCCNC(N)=O)NC(=O)[C@H](CCCNC(N)=O)NC(=O)[C@H](Cc2ccc(O)cc2)NC(=O)[C@H]2CCCN2C(=O)[C@H](CCCNC(N)=O)NC1=O	> 13	> 100
NCCCC[C@H]1NC(=O)[C@H](CCCNC(N)=O)NC(=O)[C@@H](Cc2ccc(O)cc2)NC(=O)[C@H](NC(=O)[C@@H](NC(=O)[C@H](CCCN=C(N)N)NC(=O)[C@@H](N)CCCN=C(N)N)c2ccc3ccccc3c2)CSSC[C@H](C(=O)N[C@@H](CCCN=C(N)N)C(=O)O)NC(=O)[C@H](CCCNC(N)=O)NC(=O)[C@H](CCCN=C(N)N)NC(=O)[C@H](Cc2ccc(O)cc2)NC(=O)[C@H]2CCCN2C(=O)[C@H](CCCNC(N)=O)NC1=O	> 200	> 1600
NCCCC[C@H]1NC(=O)[C@H](CCCN=C(N)N)NC(=O)[C@@H](Cc2ccc(O)cc2)NC(=O)[C@H](NC(=O)[C@@H](NC(=O)[C@H](CCCN=C(N)N)NC(=O)[C@@H](N)CCCN=C(N)N)c2ccc3ccccc3c2)CSSC[C@H](C(=O)N[C@@H](CCCN=C(N)N)C(=O)O)NC(=O)[C@H](CCCNC(N)=O)NC(=O)[C@H](CCCN=C(N)N)NC(=O)[C@H](Cc2ccc(O)cc2)NC(=O)[C@H]2CCCN2C(=O)[C@H](CCCNC(N)=O)NC1=O	> 20	28

Reference: ChEMBL document CHEMBL1134146, “Development of specific CXCR4 inhibitors possessing high selectivity indexes as well as complete stability in serum based on an anti-HIV peptide T140” (Bioorg Med Chem Lett, 2001)
